From US5624924A, “Quinobenzothiazine antineoplastic agents” (priority 1994, dated 1997)
Converted amounts (≈) assume the structure as drawn. Counter-ions that a name gives are not always drawn. Like-named read-outs stand apart in the source and are kept apart here.

Experiments:
[1] = system: A549 human lung cancer cell line; test: In vitro cytotoxicity (MTT), A549; assay type: cell-based; conditions: A549, 72 h
Protocol: (§1) Metabolic activity was measured by the cells' ability to reduce the tetrazolium dye, 3-(4,5-dimethylthiazol-2-yl)-2,5-diphenyltetrazolium bromide (MTT), to a quantifiable colored formasan derivative. Surviving cells reduce the MTT dye. The inhibitory concentrations of killing 50% of the cells (IC50 s) were calculated. Testing was in accord with the following protocol:
(§2) Test compounds and a reference antineoplastic agent, ADRIAMYCIN (doxorubicin hydrochloride), were dissolved in dimethyl sulfoxide (DMSO) and diluted, first with Earle's Balanced Salt Solution, followed by culture medium, to twice the highest concentration of the compound to be tested. From this concentrated stock, two-fold serial dilutions were prepared in 96-well microtiter trays, each well containing twice the desired final concentration of the compound. Each concentration was tested in triplicate and compared to triplicate drug-free controls.
(§3) The cells were grown in the same medium used for diluting the compounds. Adherent cells were harvested by trypsinization according to the following procedure:
(§4) After harvesting by trypsinization, viable cell counts were determined and cell density was adjusted to 25,000 cells/mL. Inoculum (0.1 mL) was then added to each well for a final concentration of 2,500 cells per well. Addition of the inoculum was used to dilute the test compounds to the desired concentration.
(§5) Microtiter trays were incubated for three days at 36° C. in a humidified atmosphere containing 5% carbon dioxide.
(§6) After three days, 20 microliters of 5 mg/mL MTT in phosphate-buffered solution were added to each well of the microtiter trays. The microtiter trays were then returned to the incubator for two to four hours to allow the surviving cells to reduce the dye. After this incubation, both the medium and the unreduced dye were removed by aspiration. DMSO was added to each well to dissolve the water-insoluble, colored end product of the dye reduction for spectrophotometric measurement at 570 nm.
(§7) The results obtained which clearly show the cytotoxicity of the compounds of Examples 5, 6, 7 and 8 against […] tumor cell lines A549, HCT-8, HT-29 and P388-D1, are illustrated in Table 1. (A549 is a human lung cancer cell line; HCT-8 is a human colon cancer cell line; HT-29 is a human colon cancer cell line; and P388-D1 is a mouse leukemia cell line.)

[2] = system: HT-29 human colon cancer cell line; test: In vitro cytotoxicity (MTT), HT-29; assay type: cell-based; conditions: HT-29, 72 h
Protocol: as §1, §2, §3, §4, §5, §6, §7

[3] = system: P388-D1 mouse leukemia cell line; test: In vitro cytotoxicity (MTT), P388-D1; assay type: cell-based; conditions: Mus musculus, P388D1, 72 h, read-out: In Vitro Cytotoxicity (IC50), P388-D1
Protocol: as §1, §2, §3, §4, §5, §6, §7

[4] = system: P388 mouse leukemia cell line; test: In vitro cytotoxicity (MTT), P388; assay type: cell-based; conditions: P388, 72 h, read-out: In Vitro Cytotoxicity (IC50)
Protocol: as §1, §2, §3, §4, §5, §6
(§8) Compounds from Examples 4, 6, 8, 9 and 10 were additionally tested against human and murine tumor cell lines A549, HT-29, P388-D1, P388, P388-ADR(0.0), P388-ADR(0.1) and B16F109. (P388 is a mouse leukemia cell line similar to P388-D1, but animal-passaged; P388-ADR (0.0) is an ADRIAMYCIN-resistant variant of P388, the inoculum of which is grown in drug-free medium; P388-ADR (0.1) is an ADRIAMYCIN-resistant variant of P388, the inoculum of which is grown in medium with 0.1 mcg.ml ADRIAMYCIN; and B16F10 is a mouse melanoma.) The results are presented in Table 2; as shown in the table, the compounds of the present invention are effective cytotoxic agents even against the ADRIAMYCIN-resistant cell line P388-ADR.

B16F10 mouse melanoma = test: In vitro cytotoxicity (MTT), B16F10; assay type: cell-based; conditions: B16-F10, 72 h, read-out: In Vitro Cytotoxicity (IC50)
Protocol: as §1, §2, §3, §4, §5, §6, §8

[5] = system: P388-ADR(0.0), ADRIAMYCIN-resistant variant of P388; test: In vitro cytotoxicity (MTT), P388-ADR(0.0); assay type: cell-based; conditions: Mus musculus, 72 h, inoculum grown in drug-free medium, Table 2
Protocol: as §1, §2, §3, §4, §5, §6, §8

[6] = system: C-26 colon adenocarcinoma; test: In vivo activity against C-26 implanted intraperitoneally (Example 44); design: species or system mouse
Protocol: (§9) The title compound of Example 37 above was tested against solid tumors in mice, using 1,3-bis(2-chloroethyl)-1-nitrosourea (BCNU) as a positive control. The tumor lines were M5076, an ovarian sarcoma implanted intraperitoneally (IP), and C-26, a colon adenocarcinoma, implanted intraperitoneally (IP) and subcutaneously (SC) in separate trials.
(§10) All drugs were administered in 5% aqueous dextrose or other suitable diluent. Drug efficacy was determined by prolonged survival times of the test animals or reduced tumor mass as compared to negative controls. Test groups consisted of 10 mice. Control groups consisted of 20 mice. Animals were of one sex and of similar weight. Prior to testing, the tumor cell lines were propagated in BALB/cj mice. Tumor implants were aliquots of a donor pool brei,
In the IP trials, the mean survival time (MST) of the groups of mice was determined, not counting animals surviving at the conclusion of the trial, and the mean lifespan comparison value of % MST(T/C) calculated, which value represents the ratio of treated to control group MST's expressed as a percentage.
For C-26 colon adenocarcinoma, the tumor was implanted into CD2 F1 mice, IP and SC in separate trials. For the C-26 IP trial, the tumor was implanted IP on day 0. The test compound were administered four times a day IP from day 1 to day 9 for a total of nine days. BCNU was administered four times a day on days 1, 5 and 9.

[7] = system: C-26 colon adenocarcinoma; test: In vivo activity against C-26 implanted subcutaneously (Example 44); design: species or system mouse; conditions: 10 mg/kg, compound 37 days 1-9, BCNU days 1, 5, 9
Protocol: as §9, §10
For the C-26 SC trial, the tumor was implanted SC into mice on day 0. The test compound was administered four times a day IP from day 1 to day 9 for a total of nine days. BCNU was administered four times a day on days 1, 5, and 9. The mean tumor masses were determined on day 11 and day 21, and the experiment terminated on day 60. The mean tumor mass (MTM) inhibition value of % MTM(T/C) was calculated, which value represents the ratio of treated to control group MTM's expressed as a percentage.

[8] = read-out: In Vitro Cytotoxicity (IC50), A549, Table 1, three day MTT assay
[9] = read-out: In Vitro Cytotoxicity (IC50), A549, Table 2, ADR: average of two tests
[10] = read-out: In Vitro Cytotoxicity (IC50), HT-29, Table 1, three day MTT assay
[11] = read-out: In Vitro Cytotoxicity (IC50), HT-29, Table 2, ADR: average of two tests
[12] = 10 mg/kg, compound 37 days 1-9, BCNU days 1, 5, 9

SMILES	IC50 [1, 9] [µg/mL]	IC50 [2, 11] [µg/mL]	IC50 [4] [µg/mL]	IC50 (B16F10 mouse melanoma) [µg/mL]	also measured
NC1CCN(c2c(F)cc3c(=O)c(C(=O)O)cn4c3c2Oc2cc(F)ccc2-4)C1 (stereo not drawn) [Example 7, 1-(3-aminopyrrolidin-1-yl)-2,9-difluoro-4-oxo-4H-quino[2,3,4-i,j][1,4]benzoxazine-5-carboxylic acid hydrochloride]	4.1	0.2	–	–	IC50 [1, 8]: 4.1 µg/mL; IC50 [2, 10]: 0.21 µg/mL; IC50 ([3]; Table 1, three day MTT assay): 0.11 µg/mL; IC50 ([3]; Table 2, ADR value marked *: single test): 0.11 µg/mL
Cc1cc(C)c2c(c1)-n1cc(C(=O)O)c(=O)c3cc(F)c(N4CCC(N)C4)c(c31)O2 (stereo not drawn) [Example 15, 1-(3-aminopyrrolidin-1-yl)-8,10-dimethyl-2-fluoro-4-oxo-4H-quino[2,3,4-i,j][1,4]benzoxazine-5-carboxylic acid hydrochloride]	0.034	0.015	0.012	0.015	–
Cc1ccc2c(c1)-n1cc(C(=O)O)c(=O)c3cc(F)c(N4CCC(N)C4)c(c31)O2 (stereo not drawn) [Example 4, 1-(3-aminopyrrolidin-1-yl)-2-fluoro-8-methyl-4-oxo-4H-quino[2,3,4-i,j][1,4]benzoxazine-5-carboxylic acid hydrochloride]	0.122	0.0431	0.0384	0.0221	IC50 [5]: 0.24 µg/mL
Cc1ccc2c(c1)Oc1c(N3CC[C@H](N)C3)c(F)cc3c(=O)c(C(=O)O)cn-2c13 [Example 18, 1-((3S)-3-aminopyrrolidin-1-yl)-2-fluoro-9-methyl-4-oxo-4H-quino[2,3,4-i,j][1,4]benzoxazine-5-carboxylic acid hydrochloride]	0.11	0.04	0.047	0.024	IC50 [5]: 0.13 µg/mL
CCOC(=O)c1cn2c3c(c(N4CCC(NC(C)=O)C4)c(F)cc3c1=O)Oc1cc([N+](=O)[O-])ccc1-2 (stereo not drawn) [Example 5, Ethyl 1-(3-acetamidopyrrolidin1-yl)-2-fluoro-9-nitro-4-oxo-4H-quino[2,3,4-i,j][1,4]benzoxazine-5-carboxylate]	–	–	–	–	IC50 [1, 8]: 0.13 µg/mL (≈ 0.262 µM); IC50 [2, 10]: 0.078 µg/mL (≈ 0.157 µM); IC50 ([3]; Table 1, three day MTT assay): 0.011 µg/mL (≈ 0.0222 µM)
NC1CCN(c2c(F)cc3c(=O)c(C(=O)O)cn4c3c2Oc2cc3c(cc2-4)OCO3)C1 (stereo not drawn) [Example 32, 1(3-aminopyrrolidin-1-yl)-2-fluoro-8,9-methylenedioxy-4-oxo-4H-quino[2,3,4-i,j][1,4]benzoxazine-5-carboxylic acid hydrochloride]	0.134	0.042	0.022	0.018	–
CCOC(=O)c1cn2c3c(c(N4CCC(N)C4)c(F)cc3c1=O)Oc1cc3c(cc1-2)OCO3 (stereo not drawn) [Example 35, Ethyl 1-(3-aminopyrrolidin-1-yl)-2-fluoro-8,9-methylenedioxy-4-oxo-4H-quino[2,3,4-i,j][1,4]benzoxazine-5-carboxylate]	0.26 (≈ 0.573 µM)	0.093 (≈ 0.205 µM)	0.034 (≈ 0.075 µM)	0.077 (≈ 0.17 µM)	–
Cc1ccc2c(c1)Oc1c(N3CC[C@@H](N)C3)c(F)cc3c(=O)c(C(=O)O)cn-2c13 [Example 19, 1-((3R)-3-aminopyrrolidin-1-yl)-2-fluoro-9-methyl-4-oxo-4H-quino[2,3,4-i,j][1,4]benzoxazine-5-carboxylic acid hydrochloride]	0.24	0.052	0.047	0.049	–
NC1CCN(c2c(F)cc3c(=O)c(C(=O)N4CCOCC4)cn4c3c2Oc2ccccc2-4)C1 (stereo not drawn) [Example 29, 1-(3-aminopyrrolidin-1-yl)-2-fluoro-5-(1-morpholinocarbonyl)-4-oxo-4H-quino[2,3,4-i,j][1,4]benzoxazine trifluoracetate salt]	6	1.4	0.54	0.56	IC50 [5]: 49.4 µg/mL
CCOC(=O)c1cn2c3c(c(N4CCC(NC(C)=O)C4)c(F)cc3c1=O)Oc1cc(C)ccc1-2 (stereo not drawn) [6, step 2, Ethyl 1-(3-acetamidopyrrolidin-1-yl)-2-fluoro-9-methyl-4-oxo-4H-quino[2,3,4-i,j][1,4]benzoxazine-5-carboxylate]	–	–	–	–	IC50 [1, 8]: 1.01 µg/mL (≈ 2.17 µM); IC50 [2, 10]: 0.64 µg/mL (≈ 1.37 µM); IC50 ([3]; Table 1, three day MTT assay): 0.65 µg/mL (≈ 1.4 µM)
CC(C)(C)c1ccc2c(c1)-n1cc(C(=O)O)c(=O)c3cc(F)c(N4CCC(N)C4)c(c31)O2 (stereo not drawn) [Example 21, 1-(3-aminopyrrolidin-1-yl)-8-t-butyl-2-flouro-4-oxo-4H-quino[2,3,4-i,j][1,4]benzoxazine-5-carboxylic acid hydrochloride]	0.247	0.078	0.063	0.045	–
N[C@H]1CCN(c2c(F)cc3c(=O)c(C(=O)O)cn4c3c2Oc2ccccc2-4)C1 [Example 16, 1((3S)-3-aminopyrrolidin-1-yl)-2-fluoro-4-oxo-4H-quino[2,3,4-i,j][1,4]benzoxazine-5-carboxylic acid hydrochloride]	0.23	0.055	0.017	0.018	IC50 [5]: 0.12 µg/mL
NC1CCN(c2c(F)cc3c(=O)c(C(=O)Nc4ccc(F)cc4F)cn4c3c2Oc2ccccc2-4)C1 (stereo not drawn) [Example 30, 1-(3-aminopyrrolidin-1-yl)-2-fluoro-4-oxo-4H-quino[2,3,4-i,j][1,4]benzoxazine-5-(N-2,4-difluorphenyl)carboxamide hydrochloride]	4.1	1.6	0.6	1.3	–
O=NN(CCCl)C(=O)NCCCl [BCNU, 1,3-bis(2-chloroethyl)-1-nitrosourea, reference compound]	–	–	–	–	% MST(T/C) [6, 12]: 201%; MST [6, 12]: 41.4; test animals that survived the trial ([6]; BCNU 10 mg/kg (footnote b)): One of ten test animals survived the trial; % MTM(T/C) ([7]; day 11): 1%; MTM ([7]; day 11): 2 mg; % MTM(T/C) ([7]; day 21): 7%; MTM ([7]; day 21): 244 mg
